From patent US6610489B2, “Pharmacogenomics and identification of drug targets by reconstruction of signal transduction pathways based on sequences of accessible regions” (Sangamo BioSciences, Inc., priority 2000, dated 2003)

Columns and labels:
[1] = system: p16 CpG island sequences associated with acetylated histone H3 in HCT15 cells; experiment: Chromatin immunoprecipitation with anti-acetylated histone H3 antibody, real-time quantitative PCR (Taqman); type: cell-based, human; conditions: HCT15 cells treated with 2 μM 5-azacytidine during three-day growth, compared to untreated cells; VEGF gene region as control sequence
Description: In this example, chromatin immunoprecipitation (ChIP) was used to enrich a population of DNA fragments comprising regulatory sequences for the p16 tumor suppressor gene, by virtue of their association with acetylated histone H3. A CpG island is located in the p16 gene (GenBank Accession No. AF022809), between about 30 nucleotide pairs upstream, and about 590 nucleotide pairs downstream of the transcriptional startsite identified by Hara et al. (1996) Mol. Cell. Biol. 16:859-867. One form of regulation of genes associated with CpG islands is through methylation of C residues within the CpG island. […]
Untreated and 5-azacytidine-treated HCT15 cells were analyzed by chromatin immunoprecipitation to test for a specific association of acetylated H3 with unmethylated (i.e., active) CpG island sequences. […] Then, in both portions, formaldehyde crosslinks were reversed, DNA was purified, and the purified DNA was analyzed by means of a real-time quantitative PCR assay, known colloquially as “Taqman®.” The DNA was analyzed for the relative proportion of two sequences: (1) a region adjacent to the CpG island located in the 5′-untranslated region of the p16 gene (see above), and (2) a portion of the VEGF gene corresponding to the region from 2324 to 2246 nucleotide pairs upstream of the transcription initiation site.

p16 gene = conditions: HCT15 cells, in which the p16 CpG island is methylated and the p16 gene is inactive; cited from earlier work

Nc1ncn([C@@H]2O[C@H](CO)[C@@H](O)[C@H]2O)c(=O)n1 [5-azacytidine]
enrichment of p16 CpG island sequences associated with acetylated H3 [1]: approximately 10 fold
p16 transcription (p16 gene): activation of p16 transcription
